In patent US10968193B2, “Antidiabetic bicyclic compounds” (Merck Sharp & Dohme Corp., priority 2014, dated 2021):

Target: T1, human GPR40 (Homo sapiens, UniProt O14842)
T1 construct: expressed in transfected cells; host or cells: HEK cells stably expressing the aequorin reporter
Assay: Inositol Phosphate Turnover (IP1) Assay 1
Assay type: cell-based
Details: HEK cells stably expressing human GPR40; 15,000 cells per well; compound transferred via pocket tip; CisBio IP-One kit
Protocol: Human and mouse GPR40 stable cell-lines were generated in CHO cells stably expressing NFAT BLA (Beta-lactamase). A human GPR40 stable cell-line was generated in HEK cells stably expressing the aequorin expressing reporter. The expression plasmids were transfected using lipofectamine (Life Technologies) following manufacturer's instructions. Stable cell-lines were generated following drug selection.
Inositol Phosphate Turnover (IP1) Assay 1:
The assay was performed in 384-well format. HEK cells stably expressing human GPR40 were plated at 15,000 cells per well in growth medium (DMEM/10% fetal calf serum). Cell plates were then incubated 16 hours at 37 degrees in a 5% CO2 incubator.
Measurement of Inositol Phosphate Turnover (IP1) was performed using the CisBio IP-One kit (Part number 62IPAPEB). After the 16 hour incubation, the cells were washed with HEPES buffer and 10 ul of stimulation buffer (prepared as described in the kit) is added to each well. In a separate plate, compounds were diluted in DMSO (400-fold over the final concentration in the assay well) and 25 nl was transferred via pocket tip to the appropriate well in the assay cell plate. The plates were then incubated for 60 minutes at 37 degrees. 10 ul of detection buffer (also prepared as described in the IP-One kit) was added to each well and the plates were incubated for 60 minutes in the dark. The plates were then read in a Perkin Elmer EnVision or equivalent reader able to measure FRET. Fluorescent ratio of emission at 665 and 620 nm was then converted to IP1 concentration by back calculating from an IP1 standard curve prepared at the time of the assay.

T1 sequence (O14842 whole entry): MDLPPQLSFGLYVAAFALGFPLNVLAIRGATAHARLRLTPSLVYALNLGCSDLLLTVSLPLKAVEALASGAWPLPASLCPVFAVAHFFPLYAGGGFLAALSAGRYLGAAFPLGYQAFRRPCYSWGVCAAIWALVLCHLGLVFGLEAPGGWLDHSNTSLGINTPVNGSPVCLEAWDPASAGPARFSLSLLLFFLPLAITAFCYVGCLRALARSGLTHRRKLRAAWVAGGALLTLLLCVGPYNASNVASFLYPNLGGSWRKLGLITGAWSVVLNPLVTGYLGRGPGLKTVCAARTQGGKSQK

| SMILES | EC50 [nM] |
| --- | --- |
| COc1cc(-c2ccc(C3CCc4ccc([C@H](C5CC5)[C@H](C)C(=O)O)cc4O3)cc2CN(C)C)c(F)cn1 (stereo partly drawn) [Example 1, (2S,3R)-3-cyclopropyl-3-(2-(3-((dimethylamino)methyl)-4-(5-fluoro-2-methoxypyridin-4-yl)phenyl)chroman-7-yl)-2-methylpropanoic acid] | 8.6 |
| COc1cc(-c2ccc(C3CCc4ccc([C@H](C5CC5)[C@H](C)C(=O)O)cc4O3)cc2CN2CCC2)c(F)cn1 (mixture of isomers) [Example 10] | 193 |
| COc1cc(-c2ccc(C3CCc4ccc([C@H](C5CC5)[C@H](C)C(=O)O)cc4O3)cc2C(C)N(C)C)c(F)cn1 (some centres unmarked) [Example 3] | 18 |
| COc1ccc(F)c(-c2ccc(C3CCc4ccc([C@H](C5CC5)[C@H](C)C(=O)O)cc4O3)cc2CN)c1 (mixture of isomers) [Example 2] | 2990 |

Target: T1, human GPR40
Assay: Inositol Phosphate Turnover (IP1) Assay 2
Assay type: cell-based
Details: HEK cells stably expressing human GPR40; 15,000 cells per well; compound acoustically transferred; CisBio IP-One kit
Method in brief: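 HEK cells stably expressing human GPR40, plated 16 h beforehand, were exposed to compound in stimulation buffer for 60 min at 37 °C. IP1 accumulation was detected by HTRF (665/620 nm ratio) after 60 min with detection reagents and converted to IP1 concentration from a same-day standard curve.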

| SMILES | EC50 [nM] |
| --- | --- |
| COc1cc(-c2ccc(C3CCc4ccc([C@H](C5CC5)[C@H](C)C(=O)O)cc4O3)cc2CN2C3CCC2CC3)c(F)cn1 (some centres unmarked) [Example 69] | 2.6 |
| COc1cc(-c2ccc(C3CCc4ccc([C@H](C5CC5)[C@H](C)C(=O)O)cc4O3)cc2CN2CCC(F)(F)CC2)c(F)cn1 (mixture of isomers) [Example 46] | 1 |
| COc1cc(-c2ccc(C3CCc4ccc([C@H](C5CC5)[C@H](C)C(=O)O)cc4O3)cc2CN2[C@H](C)COC[C@H]2C)c(F)cn1 (some centres unmarked) [Example 60] | 0.59 |
| COC[C@H]1CCCN1Cc1cc(C2CCc3ccc([C@H](C4CC4)[C@H](C)C(=O)O)cc3O2)ccc1-c1cc(OC)ncc1F (some centres unmarked) [Example 44] | 1.8 |
| COc1cc(-c2ccc([C@@H]3CCc4ccc([C@H](C5CC5)[C@H](C)C(=O)O)cc4O3)cc2CNCC(F)(F)F)c(F)cn1 [Example 150] | 1 |
| COc1cc(-c2ccc([C@H]3CCc4ccc([C@H](C5CC5)[C@H](C)C(=O)O)cc4O3)cc2CN2[C@H](C)CC[C@H]2C)c(F)cn1 [Example 147] | 0.7 |
| COc1cc(-c2ccc(C3CCc4ccc([C@H](C5CC5)[C@H](C)C(=O)O)cc4O3)cc2CN2CCCC(OC)C2)c(F)cn1 (some centres unmarked) [Example 48] | 3.6 |
